Experimental data taken from patent US20100197752A1, “UROCANIC ACID DERIVATIVES USEFUL FOR THE TREATMENT OF IMMUNE-RELATED AND INFLAMMATORY DISEASES” (priority 2007, published 2010).

Key:
BALB/c mice = test: Suppression of prolonged contact hypersensitivity (P-CHS), oxazolone-induced ear swelling; assay type: in vivo; details: for sequence from high to low effectiveness, suppressive effect on P-CHS response (ear swelling): BALB/c mice, oxazolone, topical twice daily, averaged from 2-3 experiments, compared to placebo (100% ear swelling), FIG. 3; for immunosuppressive, e.g. anti-inflammatory properties (efficacy): conclusion from P-CHS in BALB/c mice, topical application
Protocol: Suppression of prolonged contact hypersensitivity (P-CHS) by ethyl imidazole-4-acetate in BALB/c mice.
Ethyl imidazole-4-acetate was dissolved in ethanol/water 1:1 in a concentration of 5%. The topical application of ethanol/water 1:1 alone served as full-response control. Ethanol/water test solutions were topically applied with a pipette in aliquots of 20 μL/ear.
Mice were sensitized with 10 μl 1% oxazolone in acetone on […] in all experiments on the outside of both ears. On day 0 mice were challenged with 10 μl 0.5% oxazolone in acetone on both ears. Repeated elicitations were applied on day 2, 4, 7, 9. Applied oxazolone concentrations in acetone were 0.5%, 0.25%, 0.25%, 0.25%, respectively. From day 1 up to one day before the final day of the experiment, twice-daily doses of test solutions were topically given at approximately 11 AM and […]. Duplicate ear thickness measurements were made on day 0, 1, 3, 5, 8, 10 and 11 prior to any daily topical application.
The use of mice was allowed by the Committee of Experimental Animal handling of the Academic Medical Center Amsterdam. Female BALB/c mice (8-10 weeks of age) were purchased from Charles River (L′Arbresle, France) and kept in light, humidity and temperature-controlled rooms in the animal facility, 1-2 weeks before the experiment. They were fed ad libitum with water and CRM-E food van Special Diets services (SDS, Witham, Essex, UK).
Data points, obtained with test compound administration, were compared to the data, obtained with vehicle (ethanol/water 1:1) administration and were statistically processed using Welch's unpaired t-test.

[1] = tested on: IL-10 production in whole blood; test: Effect of imidazole-derivates on the production of IL-10 in whole blood following LPS stimulation; assay type: cell-based; details: LPS stimulation (10 ng/ml), FIG. 4; for IL-10 production: 10−^4 Mol/l in whole blood
From the text: Effect of imidazole-derivates on the production of IL-10
IL-10 is a cytokine that dims inflammatory immune responses. […] These findings in vitro have larger significance in a complete test system as whole blood, employed here, than in a monoculture test system (FIG. 4).
FIG. 4. Effect of imidazole-derivates on the production of IL-10 in whole blood

mice = details: Kammeyer et al. 2004, Norval et al. 1995, Noonan and De Fabo 1992; cited from earlier work

Row | SMILES | sequence from high to low effectiveness, suppressive effect on P-CHS response (ear swelling) (BALB/c mice) | immunosuppressive, e.g. anti-inflammatory properties (efficacy) (BALB/c mice) | IL-10 production [1] | IL-10 production, positive control compared with the imidazole-derivates ([1]; whole blood) | contact hypersensitivity (CHS) response (mice)
1 | CCOC(=O)Cc1c[nH]cn1 [Et-ImAc, ethyl imidazole-4-acetate] | prednisolone>ethyl imidazole-4-acetate (Et-ImAc)>imidazole-4-acetic acid (ImAc) | stronger than that of ImAc | upregulation of IL-10 |  | 
2 | NCCc1c[nH]cn1 [Histamine] |  |  |  | stronger effect on IL-10 production than the imidazole-derivates | 
3 | O=C(O)Cc1c[nH]cn1 [ImAc, Imidazole-4-acetic acid] | ethyl imidazole-4-acetate (Et-ImAc)>imidazole-4-acetic acid (ImAc)=imidazole-4-carboxylic acid | weak to moderate immunosuppressant | upregulation of IL-10 |  | suppress the contact hypersensitivity (CHS) response in mice
4 | O=C(O)c1c[nH]cn1 [ImCOOH, imidazole-4-carboxylic acid] |  |  | upregulation of IL-10 |  | 
5 | O=C([O-])c1c[nH]cn1.[Na+] [imidazole-4-carboxylic acid, imidazole-4-carboxylic acid, sodium salt] | imidazole-4-acetic acid (ImAc)=imidazole-4-carboxylic acid |  |  |  | 
6 | C[C@]12C=CC(=O)C=C1CC[C@@H]1[C@@H]2[C@@H](O)C[C@@]2(C)[C@H]1CC[C@]2(O)C(=O)CO [prednisolone] | prednisolone>ethyl imidazole-4-acetate (Et-ImAc) | classical strong suppressant |  |  | 
